Reference: ChEMBL document CHEMBL1201862, “PubChem BioAssay data set” (2004)
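Compound exposure: 48 hours, 5 concentrations, 96-well plates. Abbreviation: GI50, concentration required for 50% inhibition of growth.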 Calls of active or inactive are those of the source. No stated cut-off is given here; in the data, active = GI50 up to about 1.1 µM and inactive = higher.

Experiments:
Assay in all cases: NCI-60 cell line screen, 48 h
786-0 = system: 786-0
A498 = system: A498
A549 = system: A549
ACHN = system: ACHN
BT-549 = system: BT-549
CAKI-1 = system: CAKI-1
CCRF-CEM = system: CCRF-CEM
COLO 205 = system: COLO 205
DU-145 = system: DU-145
EKVX = system: EKVX
HCC 2998 = system: HCC 2998
HCT-116 = system: HCT-116
HCT-15 = system: HCT-15
HL-60 = system: HL-60
HOP-62 = system: HOP-62
HOP-92 = system: HOP-92
HT-29 = system: HT-29
Hs-578T = system: Hs-578T
IGROV-1 = system: IGROV-1
K562 = system: K562
KM12 = system: KM12
LOX IMVI = system: LOX IMVI
M14 = system: M14
MCF7 = system: MCF7
MDA-MB-231 = system: MDA-MB-231
MDA-MB-435 = system: MDA-MB-435
MDA-N = system: MDA-N
MOLT-4 = system: MOLT-4
Malme-3M = system: Malme-3M
NCI-H226 = system: NCI-H226
NCI-H23 = system: NCI-H23
NCI-H460 = system: NCI-H460
NCI-H522 = system: NCI-H522
NCI/ADR-RES = system: NCI/ADR-RES
OVCAR-3 = system: OVCAR-3
OVCAR-4 = system: OVCAR-4
OVCAR-5 = system: OVCAR-5
OVCAR-8 = system: OVCAR-8
PC-3 = system: PC-3
RPMI-8226 = system: RPMI-8226
RXF 393 = system: RXF 393
SF-268 = system: SF-268
SF-295 = system: SF-295
SF-539 = system: SF-539
SK-MEL-28 = system: SK-MEL-28
SK-MEL-2 = system: SK-MEL-2
SK-MEL-5 = system: SK-MEL-5
SK-OV-3 = system: SK-OV-3
SN12C = system: SN12C
SNB-19 = system: SNB-19
SNB-75 = system: SNB-75
SR = system: SR
SW-620 = system: SW-620
T47D = system: T47D
TK-10 = system: TK-10
U-251 = system: U-251
UACC-257 = system: UACC-257
UACC-62 = system: UACC-62
UO-31 = system: UO-31

Measured: GI50

COC(=O)C1=C(C(=O)OC)N(c2ccc(OC)cc2[N+](=O)[O-])C(c2ccc(C)cc2)=CC1c1ccc(OC)cc1OC (centres undefined)
4.65 µM: HCT-15
inactive: 786-0 11.9 µM | A498 16 µM | A549 7.89 µM | ACHN 18.7 µM | BT-549 11.3 µM | CAKI-1 28 µM | CCRF-CEM 3.86 µM | COLO 205 13.2 µM | DU-145 25.2 µM | EKVX 34.5 µM | HCC 2998 8.28 µM | HCT-116 10.7 µM | HL-60 3.8 µM | HOP-62 26.4 µM | HOP-92 47.2 µM | HT-29 6.53 µM | Hs-578T 31.7 µM | IGROV-1 13.3 µM | K562 3.16 µM | KM12 4.27 µM | LOX IMVI 2.36 µM | M14 17.2 µM | MCF7 4.05 µM | MDA-MB-231 23.3 µM | MDA-MB-435 5.13 µM | MDA-N 4.62 µM | MOLT-4 8.79 µM | Malme-3M 22.2 µM | NCI-H226 18.3 µM | NCI-H23 22.4 µM | NCI-H460 24.5 µM | NCI-H522 14.1 µM | NCI/ADR-RES 22.9 µM | OVCAR-3 23.6 µM | OVCAR-4 44 µM | OVCAR-5 34.5 µM | OVCAR-8 13.6 µM | PC-3 47.6 µM | RPMI-8226 2.07 µM | RXF 393 5.25 µM | SF-268 32.9 µM | SF-295 29 µM | SF-539 6.61 µM | SK-MEL-28 64.3 µM | SK-MEL-2 29.6 µM | SK-MEL-5 26.2 µM | SK-OV-3 25.8 µM | SN12C 13.6 µM | SNB-19 34.7 µM | SNB-75 18.7 µM | SR 2.28 µM | SW-620 3.88 µM | T47D 11.1 µM | TK-10 18.5 µM | U-251 6.37 µM | UACC-257 23.1 µM | UACC-62 25.2 µM | UO-31 11.7 µM
